Test results reported in patent publication US8841073B2, “Methods for identifying RNA segments bound by RNA-binding proteins or ribonucleoprotein complexes” (The Rockefeller University, priority 2008, dated 2014).
{NH2} = code of the source, not defined here; [4sU] = 4-thiouridine

Each substance was assayed against T1, recombinant His6-QKI protein (Homo sapiens, UniProt Q96PU8) (assay: Electrophoretic mobility shift assay (gel-shift) with recombinant QKI). Details: not given.
T1 construct: His6 (N); made in house; host or cells: E. coli STAR(DE3)
T1 sequence (Q96PU8 1-319 isoform Q96PU8-9): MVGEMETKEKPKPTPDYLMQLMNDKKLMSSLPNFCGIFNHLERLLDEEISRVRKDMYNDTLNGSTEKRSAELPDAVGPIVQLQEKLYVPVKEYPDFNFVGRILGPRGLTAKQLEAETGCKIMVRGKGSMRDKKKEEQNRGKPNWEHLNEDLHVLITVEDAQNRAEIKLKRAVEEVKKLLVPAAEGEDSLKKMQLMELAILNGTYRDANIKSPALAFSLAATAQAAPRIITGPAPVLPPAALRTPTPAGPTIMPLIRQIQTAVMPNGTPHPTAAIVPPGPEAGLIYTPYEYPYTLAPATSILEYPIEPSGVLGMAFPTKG
Type: binding
Protocol: FIG. 11: Electrophoretic mobility shift assay (EMSA) to analyze binding of recombinant QKI to synthetic oligoribonucleotides with a sequence derived from a cluster identified by QKI PURE-CLIP. […] C Mutation of either one of the QKI binding sites (marked with red bars in the RNA-sequence) results in decreased affinity of QKI to the RNA. Mutation of both binding sites leads to complete loss of affinity of QKI to the RNA.
Radiolabeled RNA (1 nM) was incubated with recombinant His6-QKI protein at various concentrations and 100 ng tRNA in 20 μl of 20 mM HEPES-KOH, pH 7.4, 330 mM KCl, 10 mM MgCl2, 0.1 mM EDTA and 0.01% IGEPAL CA630 (Sigma). After addition of 6 μl loading dye (40% glycerol, bromophenol blue in binding buffer), the solution was loaded onto a native 10% acrylamide gel containing 0.5×TBE, running at 200 V for 2 h at room temperature, using 0.5×TBE as running buffer. The protein-bound RNA and the free RNA were quantified using a phosphorimager.

**Q.** “U10: synthetic oligoribonucleotide with 4SU at position 3 of the QKI recognition element; GUAUGCCAU(4sU)AACAAAUUCAUUAACAA (SEQ ID NO: 31) (GUAUGCCAUUAACAAAUUCAUUAACAA; RNA, [4sU] at 10, backbone not given here)” was tested. Which “RNA-binding / affinity to recombinant QKI by gel-shift analysis” value did it give?
**A.** unaffected

These substances were tested on most abundant miRNAs in HEK293 cells (assay: miRNA inhibition by cocktail of 2'-O-methyl antisense oligoribonucleotides in HEK293 cells; seed match depletion/enrichment in down-/up-regulated transcripts (Affymetrix arrays)). Details: antisense cocktail vs mock.
Type: cell-based, human
Protocol: All miRNAs are assumed to have U at position 1. p-values for 4 types of seeds, indicated below, were tested.
miRNAs are predominantly localized to the cytoplasm although a smaller fraction can be detected in nuclear extracts (Hwang et al., 2007; Meister et al., 2004; Pena et al., 2009; Robb et al., 2005; Weinmann et al., 2009). Our CCRs correspond to 84% exonic, 14% intronic, and 2% not assigned transcribed regions. This distribution is consistent with the predominant cytoplasmic function of miRNAs. Of the exonic CCRs, 50% distributed to the CDS, 46% to the 3′ UTR, and 4% to the 5′ UTR of mRNAs, with a specific enrichment in the 3′UTRs relative to what is expected based on the relative lengths of different transcript regions (FIG. 6D). The identification of such a large number of miRNA binding sites within the CDS was unexpected, because miRNA are believed to predominantly act on 3′ UTRs (Bartel, 2009), with a few reports providing evidence for miRNA-binding to 5′ UTR or CDS (Forman et al., 2008; Lytle et al., 2007; Orom et al., 2008; Tay et al., 2008). In order to determine if CCR-containing transcripts were indeed subject to miRNA-dependent regulation, we inhibited 25 of the most abundant miRNAs in HEK293 cells (FIG. 5C) with a cocktail of 2′-O-methyl-modified antisense oligoribonucleotides (FIG. 7A and see FIG. 28A-C for the efficiency of the individual antisense oligoribonucleotide). The change in relative mRNA abundance before and after miRNA inhibition was recorded by Affymetrix whole transcriptome array analysis.
miRNA duplexes and 2′-O-methyl oligoribonucletide transfections of HEK293 TREx Flp-In cells were carried out using Lipofectamine RNAiMAX (Invitrogen). Total RNA was isolated by TRIZOL RNA extraction. The RNA was further purified and Human Genome U133 Plus 2.0 Array (Affymetrix) analyses were performed as described previously (Landthaler et al., 2008).
CEL files of mRNA profiles from miRNA/2′O-methyl oligonucleotide and mocktransfected cell were loaded into the R software using the BioConductor affy package (Gentleman et al., 2004). The transcript probe set intensities were background-corrected, adjusted for non-specific binding and quantile normalized with the GCRMA algorithm (Wu, 2006). Probe sets with more than 6 of the 11 probes mapping ambiguously to the genome were discarded, as were probe sets that mapped to multiple genes. We then collected all probe sets matching a given gene, and we computed the logarithm of gene-level expression as the average of the log-intensity of probe sets mapping to that gene. For sequence analyses we also selected a representative transcript for each gene. This was the Genbank transcript with median 3′ UTR length corresponding to that gene. In total this procedure gave us expression measurements for 16,063 genes (and representative transcripts). The difference between the log-expression levels of a gene in samples treated with a cocktail of 2′-O-methyl oligoribonucleotides and mock transfected cells was taken as a measure of transcript stabilization upon miRNA inhibition.

**Q.** How did the “efficiency of the individual antisense oligoribonucleotide (inhibition of cognate miRNA)” value (“efficiency … (inhibition of cognate miRNA)” for short) turn out when “miR-101: 2'-O-methyl antisense oligoribonucleotide UUCAGUUAUCACAGUACUGUA (SEQ ID NO: 60) (all 2'-O-methyl, backbone not given here)” was run?
**A.** Marginal

**Q.** How did the “efficiency … (inhibition of cognate miRNA)” value turn out when “miR-30a: 2'-O-methyl antisense oligoribonucleotide CUUCCAGUCGAGGAUGUUUACA-NH2 (SEQ ID NO: 56) (all 2'-O-methyl, 3' {NH2}, backbone not given here)” was run?
**A.** Worked

**Q.** Which “efficiency … (inhibition of cognate miRNA)” value does the source give for “miR-19a: 2'-O-methyl antisense oligoribonucleotide UCAGUUUUGCAUAGAUUUGCACA (SEQ ID NO: 49) (all 2'-O-methyl, backbone not given here)” here?
**A.** Worked

**Q.** “miR-21: 2'-O-methyl antisense oligoribonucleotide UCAACAUCAGUCUGAUAAGCUA (SEQ ID NO: 53) (all 2'-O-methyl, backbone not given here)” was tested. Which “efficiency … (inhibition of cognate miRNA)” value did it give?
**A.** Marginal

**Q.** “miR-15a: 2'-O-methyl antisense oligoribonucleotide CGCCAAUAUUUACGUGCUGCUA (SEQ ID NO: 44) (all 2'-O-methyl, backbone not given here)” was tested. Which “efficiency … (inhibition of cognate miRNA)” value did it give?
**A.** Worked

**Q.** “miR-27a: 2'-O-methyl antisense oligoribonucleotide AACUAUACAAUCUACUACCUCA (SEQ ID NO: 55) (all 2'-O-methyl, backbone not given here)” was tested. Which “efficiency … (inhibition of cognate miRNA)” value did it give?
**A.** did not seem to have inhibited their cognate miRNAs

**Q.** For “miR-378: 2'-O-methyl antisense oligoribonucleotide CCUUCUGACUCCAAGUCCAGU (SEQ ID NO: 65) (all 2'-O-methyl, backbone not given here)”, which “efficiency … (inhibition of cognate miRNA)” value is on record?
**A.** Marginal

**Q.** With “miR-103: 2'-O-methyl antisense oligoribonucleotide UCAUAGCCCUGUACAAUGCUGCU (SEQ ID NO: 61) (all 2'-O-methyl, backbone not given here)” as the substance, how does the “efficiency … (inhibition of cognate miRNA)” value read?
**A.** Worked

**Q.** “miR-17: 2'-O-methyl antisense oligoribonucleotide CUACCUGCACUGUAAGCACUUUG (SEQ ID NO: 47) (all 2'-O-methyl, backbone not given here)” was tested. Which “efficiency … (inhibition of cognate miRNA)” value did it give?
**A.** Worked

**Q.** With “miR-186: 2'-O-methyl antisense oligoribonucleotide AGCCCAAAAGGAGAAUUCUUUG (SEQ ID NO: 63) (all 2'-O-methyl, backbone not given here)” as the substance, how does the “efficiency … (inhibition of cognate miRNA)” value read?
**A.** Didn't Work Well

**Q.** For “miR-92a: 2'-O-methyl antisense oligoribonucleotide ACAGGCCGGGACAAGUGCAAUA (SEQ ID NO: 58) (all 2'-O-methyl, backbone not given here)”, which “efficiency … (inhibition of cognate miRNA)” value is on record?
**A.** Worked

**Q.** “miR-10a: 2'-O-methyl antisense oligoribonucleotide CACAAAUUCGGAUCUACAGGGUA-NH2 (SEQ ID NO: 43) (all 2'-O-methyl, 3' {NH2}, backbone not given here)” was tested. Which “efficiency … (inhibition of cognate miRNA)” value did it give?
**A.** did not seem to have inhibited their cognate miRNAs

**Q.** With “miR-18a: 2'-O-methyl antisense oligoribonucleotide CUAUCUGCACUAGAUGCACCUUA-NH2 (SEQ ID NO: 48) (all 2'-O-methyl, 3' {NH2}, backbone not given here)” as the substance, how does the “efficiency … (inhibition of cognate miRNA)” value read?
**A.** Worked

**Q.** With “let-7a: 2'-O-methyl antisense oligoribonucleotide AACUAUACAACCUACUACCUCA-NH2 (SEQ ID NO: 42) (all 2'-O-methyl, 3' {NH2}, backbone not given here)” as the substance, how does the “efficiency … (inhibition of cognate miRNA)” value read?
**A.** Marginal

**Q.** “miR-301b: 2'-O-methyl antisense oligoribonucleotide GCUUUGACAAUACUAUUGCACUG (SEQ ID NO: 64) (all 2'-O-methyl, backbone not given here)” was tested. Which “efficiency … (inhibition of cognate miRNA)” value did it give?
**A.** Worked

Same assay, conditions: antisense cocktail vs mock, listed as MiR-10a

**Q.** Which “efficiency … (inhibition of cognate miRNA)” value does the source give for “miR-10a: 2'-O-methyl antisense oligoribonucleotide CACAAAUUCGGAUCUACAGGGUA-NH2 (SEQ ID NO: 43) (all 2'-O-methyl, 3' {NH2}, backbone not given here)” here?
**A.** Didn't Work

Same assay, conditions: antisense cocktail vs mock, listed as MiR-27a

**Q.** How did the “efficiency … (inhibition of cognate miRNA)” value turn out when “miR-27a: 2'-O-methyl antisense oligoribonucleotide AACUAUACAAUCUACUACCUCA (SEQ ID NO: 55) (all 2'-O-methyl, backbone not given here)” was run?
**A.** Didn't Work
